Reference: patent US20260132115A1, “SUBSTITUTED 3-FLUOROBENZENEPROPANOATE COMPOUND AND PREPARATION METHOD THEREFOR, PHARMACEUTICAL COMPOSITION THEREOF, AND USE THEREOF” (TIANJIN GUDUI BIO-PHARM CO., LTD., priority 2022, published 2026)
Read-outs that look alike come from different tables or passages of the source.

Key:
Eca-109 = assay: Antitumor potency, MTT method, Eca-109; assay type: cell-based; conditions: Homo sapiens, 72 h incubation
Description: (§1) Experimental method: The antitumor potency was tested by the MTT method. Tumor cells at the logarithmic phase were collected. The concentration of the cell suspension was adjusted. 100 μL of the cell suspension was added to each well. Cell plating was carried out and the cell density was adjusted to 1000 to 10000/well (the marginal wells were filled with sterile PBS). The cells were incubated at 5% CO2 and 37° C. until the cells adhered to the wall (96-well flat-bottomed plate). Drugs of different concentration gradients were added, 100 μL per well. Four replicates were set up. Under the conditions of 5% CO2 and 37° C., the cells were incubated for 72 h and observed under an inverted microscope. The prepared MTT solution (5 mg/mL) was added to the 96-well plate, 20 μL per well, mixed well, and incubated for 4 h under the conditions of 37° C. and 5% CO2. Afterwards, the liquid in the plate was discarded. 150 μL of DMSO was added to each well and oscillated for 3 min on a microplate reader. The OD value (optical density) was detected at 490 nm.
(§2) The inhibition rate of the drug against the tumor cell growth was calculated according to the following formula: […]

H460 = assay: Antitumor potency, MTT method, H460; assay type: cell-based; conditions: Homo sapiens, NCI-H460, 72 h incubation
Description: as §1, §2

[1] = In vivo pharmacokinetic assay in rats (gavage, plasma); conditions: female, Sprague Dawley, po, prototype drug in rat plasma, dose equimolar to 50 mg/kg flurbiprofen; for half-life: read-out: Prototype Drug t1/2 (converted)
Description: Experimental method: Adult female Sprague Dawley rats, aged 8-10 weeks and weighing 200±20 g, were randomly grouped, with 3 rats in each group. Rats in each of the groups were administered by gavage at a dose of 50 mg/kg of flurbiprofen and an equimolar dose of other example compounds to 50 mg/kg of flurbiprofen, respectively. After gavage administration, blood was collected at 0.0833 […], and 24 h into sodium heparin anticoagulant tubes, respectively. The blood was collected by the following method: 250 μL of blood were collected from the orbital venous plexuses of the rats. After blood collection, the blood samples were centrifuged at 12000 rpm in a centrifuge for 5 min. All plasma was aspirated into a 1.5-mL centrifuge tube, and the plasma was stored in a refrigerator at -80° C. The pharmacokinetic parameters were determined by the external standard curve method. Sample processing: after the cryopreserved samples were removed and restored to room temperature, the samples were vortexed evenly and then diluted two folds with methanol; the sample solution was diluted 5 folds by adding a mixed extractant of 0.5% formic acid-containing acetonitrile:methanol=7:3, and subjected to vortex oscillation for 1 min. Subsequently, the resultant was centrifuged at 4° C. and 12000 rpm for 10 min, and then 5 μL of the supernatant was measured for assay. The pharmacokinetic parameters in the Examples were calculated using the Winnonlin software.

rats with CIA = assay: Analgesic and anti-inflammatory effects on collagen-induced rheumatoid arthritis (CIA) in rats; assay type: in vivo, Lewis rats; conditions: for paw volume effect as compared to the flurbiprofen group: left hind limb, 14-day intervention, 10 mg/kg (FIG. 3); for MWT effect as compared to the flurbiprofen group: left lower limb, 13-day intervention, 10 mg/kg (FIG. 4)
Description: Experimental method: Female Lewis rats, aged 6-8 weeks, were randomly grouped, with 8 rats in each group. Under the ambient temperature of 20.5° C. to 24.5° C. and the humidity of 40% to 70%, the light period was 12-h bright and 12-h dark. Type II collagen was mixed with Freund's incomplete adjuvant (IFA) at a ratio of 1:1 and fully emulsified on ice before use. 100 μL of the mixed solution was injected intradermally at the part 2 to 3 cm from the base of the rat tail, and 50 μL of the mixed solution was injected into the bases of both hind limbs separately. The rats in the blank control group were injected with an equal volume of saline. IFA was used for re-immunization 7 days later. […] Rats with a total score of more than 2 on both hind limbs were selected and randomly divided into a model group, a flurbiprofen group, a compound 33 group, a compound 2 group, a compound 13 group, a compound 20 group, and a compound 35 group according to the body weight, score and paw volume, and furthermore a blank control group was set up, with 8 rats in each group. The dosing […] was […], and the dosing time was 14 days. A corresponding volume of solvent was administered in the model group and the blank control group.
Test indicators: body weight, arthritis score, hind limb paw volume, and mechanical foot threshold (MWT).
Standard for arthritis score: 0=normal; 1=erythema and slight swelling observed at the ankle joint; 2=erythema and slight swelling observed from the ankle joint to the metatarsal joint or the metacarpal joint; 3=erythema and moderate swelling observed from the ankle joint to the metatarsophalangeal joint or the metacarpal joint; 4=erythema and severe swelling observed from the ankle joint to the metatarsal joint; the total score of all (four) paws was calculated, and the sum of the arthritis indices was up to 16 per rat.

U87 = assay: Antitumor potency, MTT method, U87; assay type: cell-based; conditions: Homo sapiens, U-87 MG, 72 h incubation
Description: as §1, §2

U251 = assay: Antitumor potency, MTT method, U251; assay type: cell-based; conditions: Homo sapiens, U-251, 72 h incubation
Description: as §1, §2

[2] = tested on: λ-Carrageenan-Induced Rat Toe Swelling; assay: Anti-inflammatory effect on λ-carrageenan-induced rat toe swelling; assay type: in vivo, SD rats; conditions: Rattus norvegicus, ip, 10 mg/kg intraperitoneal, 1 h before 1% λ-carrageenan
Description: Experimental method: Male SD rats weighing 150-160 g were randomly grouped, with 10 rats in each group. The rats were intraperitoneally injected with saline, the compounds of the present disclosure, and the control drug flurbiprofen or flurbiprofen axetil respectively, all of which were administered at a dose of 10 mg/kg and a dosing volume of 10 μL/g. At 1 h after administration, 100 μL of 1% λ-carrageenan was injected into the right hind toe of each rat to induce inflammation. Afterwards, the paw volume was measured every 1 h using a paw volume meter to calculate the swelling inhibition rate.

[3] = tested on: Dry Yeast-Induced Rat Fever Models; assay: Antipyretic effect on dry yeast-induced fever in rats; assay type: in vivo, SD rats; conditions: rectal temperature, 10 mg/kg intraperitoneal, 20 min before 20% dry yeast s.c.
Description: Experimental method: Male SD rats, aged 4 weeks, were randomly grouped, with 10 rats in each group. […] The rats were intraperitoneally injected with saline, the compounds of the present disclosure or the control drug flurbiprofen respectively, all of which were administered at a dose of 10 mg/kg and a dosing volume of 10 μL/g. At 20 min after administration, 20% active dry yeast suspension was injected subcutaneously. After modeling, the rectal temperatures were measured at 4 h and 8 h.

NUGC-4 = assay: Antitumor potency, MTT method, NUGC-4; assay type: cell-based; conditions: Homo sapiens, 72 h incubation
Description: as §1, §2

MM.1S = assay: Antitumor potency, MTT method, MM.1S; assay type: cell-based; conditions: Homo sapiens, MM1.S, 72 h incubation
Description: as §1, §2

[4] = 6 h, read-out: Toe Swelling Inhibition Rate at 6 h
[5] = 24 h, read-out: Toe Swelling Inhibition Rate at 24 h

Row | IC50 (Eca-109) | IC50 (H460) | AUC [1] | Cmax [1] | half-life [1] | IC50 (U87) | IC50 (U251) | IC50 (NUGC-4) | IC50 (MM.1S) | Compound | paw volume effect as compared to the flurbiprofen group (rats with CIA) | MWT effect as compared to the flurbiprofen group (rats with CIA) | inhibition in vivo at 10 mg/kg [2, 4] | inhibition in vivo at 10 mg/kg [2, 5] | Temp. at 4 h After Dosing [3] | Temp. at 8 h After Dosing [3]
1 | > 100 µM | > 100 µM | 8.75 ± 1.53 ng·h/mL | 1.56 ± 0.509 ng/mL | 9.08 ± 1.44 h | > 100 µM | > 100 µM | > 100 µM | > 100 µM | Cc1cc(CO)c(O)c(COC(=O)C(C)c2ccc(-c3ccccc3)c(F)c2)c1 (stereo not drawn) [Compound 33] | better effects | slightly better or better effects | 55.5% | 35.8% | 37.18 ± 0.18 °C | 37.27 ± 0.28 °C
2 | 30.7 µM | 47.9 µM | – | – | – | 80.5 µM | 73.9 µM | 40.1 µM | 5.39 µM | CCCN(CCC)C(=O)OCOC(=O)C(C)c1ccc(-c2ccccc2)c(F)c1 (stereo not drawn) [Compound 13] | better effects | slightly better or better effects | 46% | 37% | 37.10 ± 0.172 °C | 37.32 ± 0.27 °C
3 | 55.7 µM | 90 µM | 183 ± 85.9 ng·h/mL | 27.1 ± 7.2 ng/mL | 14 ± 9.88 h | > 100 µM | > 100 µM | 60 µM | 41.7 µM | CC(C(=O)OCOC(=O)N1CCOCC1)c1ccc(-c2ccccc2)c(F)c1 (stereo not drawn) [Compound 2] | better effects | slightly better or better effects | 42.9% | 34.1% | 37.10 ± 0.17 °C | 37.32 ± 0.27 °C
